Data on one molecule can be found in patent US20240327359A1, “3-ISOXAZOLIDINONE COMPOUND, PREPARATION METHOD, HERBICIDAL COMPOSITION AND APPLICATION THEREOF” (QINGDAO KINGAGROOT CHEMICAL COMPOUND CO., LTD., priority 2021, published 2024).

SMILES strings stand for the structures.

What all share (type): in vivo
The subject of series [1] is Galium aparine. The series is described as follows: Activity test of the compositions, post-emergence treatment by foliage spray. Conditions: foliage (F), A 16 g a.i./mu. The procedure: The desired active ingredient B was purchased from a reagent company or synthesized by a known method. The technical materials were all dissolved in acetone and diluted with an aqueous solution containing 0.10% emulsifier Tween-80 which were to be used immediately after dilution.
Weeds were cultivated by a pot culture method. […] Weed seeds with plump and uniform grains were selected, soaked in lukewarm water at 25° C. for 6 hours, and germinated in a 28° C. biochemical incubator (in darkness). The weed seeds that had just germinated were evenly placed on the surface of the soil and then covered with 0.5-1 cm soil according to the sizes of seeds.
Each treatment was repeated 4 times. Four pots with 20 weed seeds per pot were treated each time.
The agents were used for only once in total in the experiment. In the stage of 1.5-2 leaves, the weeds were thinned out to maintain 10 weeds per pot. Ten weeds were kept in each treatment, then continued to be cultured until Echinochloa crus-galli var. zelayensis reached the stage of 2-3 leaves, Cirsium setosum reached the stage of 5-6 leaves, Galium aparine reached the stage of 3-4 whorl leaves, Amaranthus retroflexus reached the stage of 3-5 leaves, Echinochloa crusgalli, Lolium multiflorum and Digitaria sanguinalis reached the stage of 3 leaves with one leaf not fully expanding for further treatment.
The well-cultured test materials were evenly placed on a platform with an area of 0.5 m^2, and solution of agents was sprayed on the stems and leaves thereof by the 3WP-2000-type walking spray tower at a dosage of 450 kg/ha and at a spray pressure of 0.3 MPa. After all the solution was sprayed, the valve was closed. After 30 seconds, the door of the spray tower was opened, and the nutritional bowl was taken out. Then the valve was opened, and the spray tube was cleaned by spraying 50 ml of water. After the treatment, the weeds were routinely cultured in a greenhouse.
A method for investigating absolute numbers was employed. Whole seedlings of survival weeds were cut off with a blade along the soil surface, and the fresh weight of the weeds was weighed with an analytical balance. For dead weeds, the fresh weight thereof was zero.
The investigation was performed 21 days after the treatment for only once in total.

Series [2] concerns rice. Nature of the series: Post-emergence stage, crop damage. Conditions: 720 g a.i./ha, 3 weeks after application. The source says: (§1) The activity level criteria for plant damage (i.e., growth control rate) are as follows:
(§2) The above growth control rates are fresh weight control rates.
(§3) Monocotyledonous and dicotyledonous weed seeds (Descurainia sophia, Capsella bursa-pastoris, Abutilon theophrasti, Galium aparine, Stellaria media, Lithospermum arvense, Rorippa indica, Alopecurus aequalis, Alopecurus japonicus, Eleusine indica, Beckmannia syzigachne, Sclerochloa dura, Phleum paniculatum, Veronica didyma, Bromus japonicus, Aegilops tauschii, Phalaris arundinacea, Amaranthus retroflexus, Chenopodiaceae, Commelina communis, Sonchus arvensis, Convolvulus arvensis, Cirsium setosum, Solanumnigrum, Acalypha australis, Digitaria sanguinalis, Echinochloa crusgalli, Setaria viridis, Setaria glauca, Leptochloa chinensis, Monochoria vaginalis, Sagittaria trifolia, Scirpus juncoides, Cyperus rotundus, Cyperus iria, Cyperus difformis, Fimbristylis, Portulaca oleracea, Xanthium sibiricum, Pharbitis nil, Conyza Canadensis, etc.) and major crop seeds (wheat, corn, rice, soybean, cotton, oilseed rape, millet, sorghum, potato, sesame, ricinus, etc.) were placed in plastic pots filled with soil, then covered with 0.5-2 cm of soil, allowed to grow in a good greenhouse environment. Two weeks after sowing, the test plants were treated in the 2-3 leaf stage. The tested compounds of the present invention were respectively dissolved in acetone, then added with Tween 80 and 1.5 liter/ha of emulsifiable concentrate of methyl oleate as synergist, diluted with a certain amount of water to obtain a solution of a certain concentration, and sprayed by a spray tower onto the plants. After the application, the plants were cultured for 3 weeks in the greenhouse, and then the experimental results of the weeding were recorded. The doses of the used compounds were 45, 90, 180, 360, 720 g a.i./ha, and the averages were obtained from three replicates.

In series [3] the test system is wheat. The series is described as follows: Post-emergence stage, crop damage. Conditions: 720 g a.i./ha, 3 weeks after application.
Text: as §1, §2, §3

Series [4] relates to rice. The series is described as follows: Pre-emergence stage, crop damage. Conditions: 2 weeks.
Text: as §1, §2
(§4) Monocotyledonous and dicotyledonous weed seeds (Descurainia sophia, Capsella bursa-pastoris, Abutilon theophrasti, Galium aparine, Stellaria media, Lithospermum arvense, Rorippa indica, Alopecurus aequalis, Alopecurus japonicus, Eleusine indica, Beckmannia syzigachne, Sclerochloa dura, Phleum paniculatum, Veronica didyma, Bromus japonicus, Aegilops tauschii, Phalaris arundinacea, Amaranthus retroflexus, Chenopodiaceae, Commelina communis, Sonchus arvensis, Convolvulus arvensis, Cirsium setosum, Solanumnigrum, Acalypha australis, Digitaria sanguinalis, Echinochloa crusgalli, Setaria viridis, Setaria glauca, Leptochloa chinensis, Monochoria vaginalis, Sagittaria trifolia, Scirpus juncoides, Cyperus rotundus, Cyperus iria, Cyperus difformis, Fimbristylis, Portulaca oleracea, Xanthium sibiricum, Pharbitis nil, Conyza Canadensis, etc.) and major crop seeds (wheat, corn, rice, soybean, cotton, oilseed rape, millet, sorghum, potato, sesame, ricinus, etc.) were placed in plastic pots filled with soil, then covered with 0.5-2 cm of soil, allowed to grow in a good greenhouse environment. The test plants were treated on the day of sowing. The tested compounds of the present invention were respectively dissolved in acetone, then added with Tween 80, diluted with a certain amount of water to obtain a solution of a certain concentration, and sprayed by a spray tower onto the plants. After the application, the plants were cultured for 2 weeks in the greenhouse, and then the experimental results of the weeding were recorded. The doses of the used compounds were 3, 6, 12, 24, 48 g ai./mu (1 mu=1/15 ha), and the averages were obtained from three replicates.

Series [5] concerns wheat. The series is described as follows: Pre-emergence stage, crop damage. Conditions: 2 weeks.
Text: as §1, §2, §4

The subject of series [6] is soy bean. Nature of the series: Pre-emergence stage, crop damage. Conditions: 2 weeks.
Text: as §1, §2, §4

The subject of series [7] is corn. The series is described as follows: Pre-emergence stage, crop damage. Conditions: 24 g a.i./mu, 2 weeks.
Text: as §1, §2, §4

For series [8], the system named is peanut. Nature of the series: Pre-emergence stage, crop damage. Conditions: 48 g a.i./mu, 2 weeks.
Text: as §1, §2, §4

Series [9] relates to cotton. The series is described as follows: Pre-emergence stage, crop damage. Conditions: 2 weeks.
Text: as §1, §2, §4

`CC1(C)CON(Cc2ccc(Cl)cc2Br)C1=O` [Compound 1]: in series [1], the “Control effect (%) of A applied alone (A)” value is listed as 55.4%. In addition, the “plant damage level (growth control rate) on crop, post-emergence stage” value in [2] is 1 (Level 1: growth control rate is greater than or equal to 5% and less than 20%); in series [3], 1 (Level 1: growth control rate is greater than or equal to 5% and less than 20%). In addition, the “plant damage level (growth control rate) on crop, pre-emergence stage” value in series [4] (6 g a.i./mu) is 0; in [4] (12 g a.i./mu) it was 0; in [4] (24 g a.i./mu) it was 1 (Level 1: growth control rate is greater than 0% and less than 15%); in series [5] (6 g a.i./mu), 0; in series [5] (12 g a.i./mu) it was 0; in series [5] (24 g a.i./mu) it was 0. Also, the “plant damage level (growth control rate) on crop, pre-emergence stage” value in [6] (24 g a.i./mu), in [6] (48 g a.i./mu), in [7], in series [8], in [9] (12 g a.i./mu) and in series [9] (24 g a.i./mu) was 0 each time.
